Common to all, as to conditions: Tables 2a-2k
One assay addresses T1, ERK-1 protein (Homo sapiens, UniProt P27361).
T1 construct: purchased Calbiochem
In words: Kinase Selectivity Assay ERK-1. The assay is classed as biochemical. The method, then: Assays to test compound inhibition of other kinases were preformed using methods that measure the amount of phosphorylation of a biotinylated peptide substrate. Biotinylated peptide substrates were selected from the literature as appropriate for the enzyme being evaluated. The general procedure used to assay for kinase activity is as follows: A kinase reaction mix was prepared in 50 mM Tris-HCl pH=8, 10 mM MgCl2, 0.1 mM Na3VO4, 1 mM DTT, 10 μM ATP, 0.25-1 μM biotinylated peptide substrate, 0.2-0.82 μCuries per well ^33P-γ-ATP [2000-3000 Ci/mmol]. Assay conditions vary slightly for each protein kinase, for example, insulin receptor kinase requires 10 mM MnCl2 for activity and Calmodulin-dependent protein kinase requires calmodulin and 10 mM CaCl2. These assay conditions are known in the art. […] The plate was read on a scintillation counter to determine ^33P-γ-ATP incorporated into the immobilized peptide. […] A maximum and minimum signal for the assay was determined on each plate. The IC50 was calculated from the dose response curve of the percent inhibition of the maximum signal in the assay according to the formula [max signal—background/test compound signal—background (100)=% inhibition] by graphing the percent inhibition against the log concentration of test compound. […]

The target of another assay is T2, CDK4/D1 complex (Mus musculus, UniProt P30285).
T2 construct: made in house; host or cells: insect cells (baculovirus co-infection)
Put plainly: Kinase Selectivity Assay CDK4. The assay is classed as biochemical. The method, then: Assays to test compound inhibition of other kinases were preformed using methods that measure the amount of phosphorylation of a biotinylated peptide substrate. Biotinylated peptide substrates were selected from the literature as appropriate for the enzyme being evaluated. The general procedure used to assay for kinase activity is as follows: A kinase reaction mix was prepared in 50 mM Tris-HCl pH=8, 10 mM MgCl2, 0.1 mM Na3VO4, 1 mM DTT, 10 μM ATP, 0.25-1 μM biotinylated peptide substrate, 0.2-0.82 μCuries per well ^33P-γ-ATP [2000-3000 Ci/mmol]. Assay conditions vary slightly for each protein kinase, for example, insulin receptor kinase requires 10 mM MnCl2 for activity and Calmodulin-dependent protein kinase requires calmodulin and 10 mM CaCl2. These assay conditions are known in the art. The reaction mixture was dispensed into the wells of a streptavidin coated Flashplate and 1 μl drug stock in 100% DMSO was added to a 100 μl reaction volume resulting in a final concentration of 1% DMSO on the reaction. Enzyme was diluted in 50 mM Tris-HCl pH=8.0, 0.1% BSA and add to each well. The reaction was incubated for one hour at 30° C. in the presence of compound. After one hour the reaction mix was aspirated from the plate and the plate was washed with PBS containing 100 mM EDTA. The plate was read on a scintillation counter to determine ^33P-γ-ATP incorporated into the immobilized peptide. Test compounds were assayed in duplicate at 8 concentrations [100 uM, 10 uM, 1 uM, 100 nM, 10 nM, 1 nM, 100 pM, 10 pM]. A maximum and minimum signal for the assay was determined on each plate. The IC50 was calculated from the dose response curve of the percent inhibition of the maximum signal in the assay according to the formula [max signal—background/test compound signal—background (100)=% inhibition] by graphing the percent inhibition against the log concentration of test compound. Known inhibitor compounds appropriate for the kinase being assayed were also included on each plate. […]

Assay [1] deals with PKC (protein kinase-C), gamma or beta isoform. In words: Kinase Selectivity Assay PKC. The format is biochemical, human. The method, then:
Assays to test compound inhibition of other kinases were preformed using methods that measure the amount of phosphorylation of a biotinylated peptide substrate. Biotinylated peptide substrates were selected from the literature as appropriate for the enzyme being evaluated. […] Assay conditions vary slightly for each protein kinase, for example, insulin receptor kinase requires 10 mM MnCl2 for activity and Calmodulin-dependent protein kinase requires calmodulin and 10 mM CaCl2. These assay conditions are known in the art. The reaction mixture was dispensed into the wells of a streptavidin coated Flashplate and 1 μl drug stock in 100% DMSO was added to a 100 μl reaction volume resulting in a final concentration of 1% DMSO on the reaction. Enzyme was diluted in 50 mM Tris-HCl pH=8.0, 0.1% BSA and add to each well. The reaction was incubated for one hour at 30° C. in the presence of compound. After one hour the reaction mix was aspirated from the plate and the plate was washed with PBS containing 100 mM EDTA. The plate was read on a scintillation counter to determine ^33P-γ-ATP incorporated into the immobilized peptide. Test compounds were assayed in duplicate at 8 concentrations [100 uM, 10 uM, 1 uM, 100 nM, 10 nM, 1 nM, 100 pM, 10 pM]. A maximum and minimum signal for the assay was determined on each plate. The IC50 was calculated from the dose response curve of the percent inhibition of the maximum signal in the assay according to the formula [max signal—background/test compound signal—background (100)=% inhibition] by graphing the percent inhibition against the log concentration of test compound. Known inhibitor compounds appropriate for the kinase being assayed were also included on each plate.
CDK2 in complex with cyclin A is commercially available (Upstate Biotech, Lake Placid, N.Y.). […]

SMILES strings stand for the structures.

T2 sequence (P30285 whole entry): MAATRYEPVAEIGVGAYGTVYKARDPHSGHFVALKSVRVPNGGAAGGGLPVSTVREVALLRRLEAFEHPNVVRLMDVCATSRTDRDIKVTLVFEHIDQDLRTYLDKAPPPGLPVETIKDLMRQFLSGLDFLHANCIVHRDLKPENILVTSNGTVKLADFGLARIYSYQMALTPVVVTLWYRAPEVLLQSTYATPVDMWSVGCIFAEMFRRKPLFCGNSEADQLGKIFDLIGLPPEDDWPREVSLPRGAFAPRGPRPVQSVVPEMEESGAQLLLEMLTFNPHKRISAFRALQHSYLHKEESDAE
T2 sequence (P25322 whole entry partner): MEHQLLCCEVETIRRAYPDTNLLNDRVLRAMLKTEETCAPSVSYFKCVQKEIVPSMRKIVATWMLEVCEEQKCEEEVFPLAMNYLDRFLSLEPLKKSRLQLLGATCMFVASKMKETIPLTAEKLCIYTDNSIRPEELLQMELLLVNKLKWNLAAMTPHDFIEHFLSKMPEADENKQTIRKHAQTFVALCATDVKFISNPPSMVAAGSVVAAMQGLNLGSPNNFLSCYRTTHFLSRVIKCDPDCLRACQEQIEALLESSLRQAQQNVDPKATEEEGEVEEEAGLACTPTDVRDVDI
T1 sequence (P27361 whole entry, species assumed): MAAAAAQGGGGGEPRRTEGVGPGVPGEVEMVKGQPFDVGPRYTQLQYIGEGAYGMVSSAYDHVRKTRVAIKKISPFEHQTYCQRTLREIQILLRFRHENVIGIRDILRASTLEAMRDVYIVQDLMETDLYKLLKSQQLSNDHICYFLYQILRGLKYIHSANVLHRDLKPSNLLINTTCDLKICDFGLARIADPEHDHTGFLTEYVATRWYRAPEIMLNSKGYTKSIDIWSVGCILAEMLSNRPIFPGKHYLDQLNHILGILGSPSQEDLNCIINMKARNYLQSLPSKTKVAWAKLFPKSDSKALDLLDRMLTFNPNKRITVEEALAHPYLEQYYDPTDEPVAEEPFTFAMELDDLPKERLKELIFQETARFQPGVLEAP

Broadly, the IC50 is the concentration needed to halve the response being measured. A low value points to higher potency. As to `Nc1nc(Nc2ccc(S(N)(=O)=O)cc2)nn1C(=O)c1cccs1` [Cpd 14, 4-[[5-amino-1-(2-thienylcarbonyl)-1H-1,2,4-triazol-3-yl]amino]-benzenesulfonamide], the IC50 on ERK-1 protein is > 100000 nM.
For `Cc1ccc(F)c(C(=O)n2nc(Nc3ccc(S(N)(=O)=O)cc3)nc2N)c1Cl` [Cpd 69, 4-[[5-amino-1-(2-chloro-6-fluoro-3-methylbenzoyl)-1H-1,2,4-triazol-3-yl]amino]-benzenesulfonamide], at CDK4/D1 complex, the IC50 stood at 187 nM.
Still for that read-out and setting: for `Nc1nc(Nc2ccc(S(N)(=O)=O)cc2)nn1C(=O)c1c(F)cccc1Cl` [Cpd 70, 4-[[5-amino-1-(2-chloro-6-fluorobenzoyl)-1H-1,2,4-triazol-3-yl]amino]-benzenesulfonamide] the value was 167 nM; for `CN1CCN(c2ccc(Nc3nc(N)n(C(=O)c4c(F)cccc4F)n3)cc2)CC1` [Cpd 71, 1-(2,6-difluorobenzoyl)-N^3-[4-(4-methyl-1-piperazinyl)phenyl]-1H-1,2,4-triazole-3,5-diamine], 129 nM.
As for `Cc1ccsc1C(=O)n1nc(Nc2ccc(N3CCNC3=O)cc2)nc1N` [Cpd 113, 1-[4-[[5-amino-1-[(3-methyl-2-thienyl)carbonyl]-1H-1,2,4-triazol-3-yl]amino]phenyl]-2-imidazolidinone], the IC50 in assay [1] was > 100000 nM.

Values taken from US6924302B2, “Substituted triazole diamine derivatives as kinase inhibitors” (Ortho McNeil Pharmaceutical, Inc., priority 2000, dated 2005).
